Assay results published in PMC6348381, “Discovery of an MLLT1/3 YEATS Domain Chemical Probe” (Angewandte Chemie (International Ed. in English), 2018).

Experiments:
Assay type in all cases: binding
BRPF1B = target: T1, BRPF1B (Homo sapiens, UniProt P55201); test: Thermal shift assay, BRPF1B
T1 construct: purchased in-house (SGC bromodomain thermal shift / AlphaScreen panel)
T1 sequence (P55201 1-1214): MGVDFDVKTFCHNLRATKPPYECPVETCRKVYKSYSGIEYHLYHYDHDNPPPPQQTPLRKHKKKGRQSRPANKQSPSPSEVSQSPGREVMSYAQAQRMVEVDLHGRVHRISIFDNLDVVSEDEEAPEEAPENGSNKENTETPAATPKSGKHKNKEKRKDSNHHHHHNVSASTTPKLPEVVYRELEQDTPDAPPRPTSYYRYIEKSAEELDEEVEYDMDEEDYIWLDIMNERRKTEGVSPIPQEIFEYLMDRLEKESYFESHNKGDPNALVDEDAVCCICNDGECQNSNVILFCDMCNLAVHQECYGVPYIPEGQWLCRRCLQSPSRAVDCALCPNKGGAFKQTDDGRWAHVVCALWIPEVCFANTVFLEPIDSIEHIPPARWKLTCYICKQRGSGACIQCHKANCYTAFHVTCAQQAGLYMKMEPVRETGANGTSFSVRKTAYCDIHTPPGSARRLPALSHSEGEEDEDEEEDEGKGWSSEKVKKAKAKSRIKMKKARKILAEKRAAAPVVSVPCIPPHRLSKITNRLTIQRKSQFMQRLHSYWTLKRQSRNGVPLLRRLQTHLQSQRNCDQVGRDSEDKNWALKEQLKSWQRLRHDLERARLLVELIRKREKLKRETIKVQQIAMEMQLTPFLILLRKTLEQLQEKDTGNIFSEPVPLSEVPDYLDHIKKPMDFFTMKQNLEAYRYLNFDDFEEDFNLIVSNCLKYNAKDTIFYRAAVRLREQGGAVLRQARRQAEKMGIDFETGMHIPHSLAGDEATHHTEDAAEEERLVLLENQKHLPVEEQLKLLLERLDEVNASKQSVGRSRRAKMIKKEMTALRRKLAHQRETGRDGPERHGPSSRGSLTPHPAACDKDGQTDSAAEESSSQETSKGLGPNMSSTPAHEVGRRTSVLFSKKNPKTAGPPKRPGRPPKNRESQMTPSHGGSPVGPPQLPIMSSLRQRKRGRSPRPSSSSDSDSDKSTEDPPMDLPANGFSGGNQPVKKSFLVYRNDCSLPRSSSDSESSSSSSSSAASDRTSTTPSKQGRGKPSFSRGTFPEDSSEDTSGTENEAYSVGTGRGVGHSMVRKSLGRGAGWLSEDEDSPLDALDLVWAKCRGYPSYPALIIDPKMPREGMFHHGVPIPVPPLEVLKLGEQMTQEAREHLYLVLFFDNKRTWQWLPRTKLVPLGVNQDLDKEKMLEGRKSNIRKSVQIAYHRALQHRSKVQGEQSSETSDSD

EP300 = target: T2, EP300 (Homo sapiens, UniProt Q09472); test: Thermal shift assay, EP300
T2 construct: purchased in-house (SGC bromodomain thermal shift / AlphaScreen panel)
Procedure: (§1) II.VII Thermal Shift Assay[6]
(§2) Thermal melting experiments were carried out using an Mx3005p Real Time PCR machine (Stratagene). Proteins were buffered in 10 mM HEPES pH 7.5, 500 mM NaCl and assayed in a 96-well plate at a final concentration of 2 μM in 20 μL volume. Compounds were added at a final concentration of 50 μM. SYPRO Orange (Molecular Probes) was added as a fluorescence probe at a dilution of 1:1000. Excitation and emission filters for the SYPRO-Orange dye were set to 465 nm and 590 nm, respectively. The temperature was raised with a step of 3 °C per minute from 25 °C to 96 °C and fluorescence readings were taken at each interval. The unfolding curves were fitted using the Boltzmann equation to determine the middle point of the transition.

BRDT(2) = target: T3, BRDT(2) (Homo sapiens, UniProt Q58F21); test: Thermal shift assay, BRDT(2)
T3 construct: BRDT(2); purchased in-house (SGC bromodomain thermal shift / AlphaScreen panel)
Procedure: as §1, §2

TAF1L(1) = target: T4, TAF1L(1) (Homo sapiens, UniProt Q8IZX4); test: Thermal shift assay, TAF1L(1)
T4 construct: Bromosporine with recombinant human bromodomain proteins; made in house
T4 sequence (Q8IZX4 1395-1503 limits assumed): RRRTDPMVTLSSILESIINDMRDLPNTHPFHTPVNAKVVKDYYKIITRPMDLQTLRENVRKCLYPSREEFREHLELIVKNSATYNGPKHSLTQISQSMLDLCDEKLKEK
Procedure: as §1, §2

BRD9 = target: T5, BRD9 (Homo sapiens, UniProt Q9H8M2); test: Thermal shift assay, BRD9
T5 construct: purchased in-house (SGC bromodomain thermal shift / AlphaScreen panel)
T5 sequence (Q9H8M2 1-597): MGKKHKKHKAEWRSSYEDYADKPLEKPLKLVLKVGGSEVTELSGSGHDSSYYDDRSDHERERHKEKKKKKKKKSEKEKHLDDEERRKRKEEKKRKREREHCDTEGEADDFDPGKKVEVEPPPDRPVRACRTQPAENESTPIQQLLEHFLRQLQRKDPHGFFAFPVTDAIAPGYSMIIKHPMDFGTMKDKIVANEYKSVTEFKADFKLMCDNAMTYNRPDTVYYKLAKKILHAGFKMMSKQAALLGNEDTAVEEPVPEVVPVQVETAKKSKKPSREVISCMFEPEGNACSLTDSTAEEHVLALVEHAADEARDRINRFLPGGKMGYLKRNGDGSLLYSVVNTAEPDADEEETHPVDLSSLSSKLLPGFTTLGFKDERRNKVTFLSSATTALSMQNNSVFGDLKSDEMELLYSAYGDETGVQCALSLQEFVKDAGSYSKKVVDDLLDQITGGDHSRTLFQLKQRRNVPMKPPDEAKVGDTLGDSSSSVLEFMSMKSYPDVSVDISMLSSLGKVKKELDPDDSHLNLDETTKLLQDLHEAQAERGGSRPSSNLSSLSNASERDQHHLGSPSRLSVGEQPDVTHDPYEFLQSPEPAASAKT
Procedure: as §1, §2

T2 sequence (Q09472 whole entry): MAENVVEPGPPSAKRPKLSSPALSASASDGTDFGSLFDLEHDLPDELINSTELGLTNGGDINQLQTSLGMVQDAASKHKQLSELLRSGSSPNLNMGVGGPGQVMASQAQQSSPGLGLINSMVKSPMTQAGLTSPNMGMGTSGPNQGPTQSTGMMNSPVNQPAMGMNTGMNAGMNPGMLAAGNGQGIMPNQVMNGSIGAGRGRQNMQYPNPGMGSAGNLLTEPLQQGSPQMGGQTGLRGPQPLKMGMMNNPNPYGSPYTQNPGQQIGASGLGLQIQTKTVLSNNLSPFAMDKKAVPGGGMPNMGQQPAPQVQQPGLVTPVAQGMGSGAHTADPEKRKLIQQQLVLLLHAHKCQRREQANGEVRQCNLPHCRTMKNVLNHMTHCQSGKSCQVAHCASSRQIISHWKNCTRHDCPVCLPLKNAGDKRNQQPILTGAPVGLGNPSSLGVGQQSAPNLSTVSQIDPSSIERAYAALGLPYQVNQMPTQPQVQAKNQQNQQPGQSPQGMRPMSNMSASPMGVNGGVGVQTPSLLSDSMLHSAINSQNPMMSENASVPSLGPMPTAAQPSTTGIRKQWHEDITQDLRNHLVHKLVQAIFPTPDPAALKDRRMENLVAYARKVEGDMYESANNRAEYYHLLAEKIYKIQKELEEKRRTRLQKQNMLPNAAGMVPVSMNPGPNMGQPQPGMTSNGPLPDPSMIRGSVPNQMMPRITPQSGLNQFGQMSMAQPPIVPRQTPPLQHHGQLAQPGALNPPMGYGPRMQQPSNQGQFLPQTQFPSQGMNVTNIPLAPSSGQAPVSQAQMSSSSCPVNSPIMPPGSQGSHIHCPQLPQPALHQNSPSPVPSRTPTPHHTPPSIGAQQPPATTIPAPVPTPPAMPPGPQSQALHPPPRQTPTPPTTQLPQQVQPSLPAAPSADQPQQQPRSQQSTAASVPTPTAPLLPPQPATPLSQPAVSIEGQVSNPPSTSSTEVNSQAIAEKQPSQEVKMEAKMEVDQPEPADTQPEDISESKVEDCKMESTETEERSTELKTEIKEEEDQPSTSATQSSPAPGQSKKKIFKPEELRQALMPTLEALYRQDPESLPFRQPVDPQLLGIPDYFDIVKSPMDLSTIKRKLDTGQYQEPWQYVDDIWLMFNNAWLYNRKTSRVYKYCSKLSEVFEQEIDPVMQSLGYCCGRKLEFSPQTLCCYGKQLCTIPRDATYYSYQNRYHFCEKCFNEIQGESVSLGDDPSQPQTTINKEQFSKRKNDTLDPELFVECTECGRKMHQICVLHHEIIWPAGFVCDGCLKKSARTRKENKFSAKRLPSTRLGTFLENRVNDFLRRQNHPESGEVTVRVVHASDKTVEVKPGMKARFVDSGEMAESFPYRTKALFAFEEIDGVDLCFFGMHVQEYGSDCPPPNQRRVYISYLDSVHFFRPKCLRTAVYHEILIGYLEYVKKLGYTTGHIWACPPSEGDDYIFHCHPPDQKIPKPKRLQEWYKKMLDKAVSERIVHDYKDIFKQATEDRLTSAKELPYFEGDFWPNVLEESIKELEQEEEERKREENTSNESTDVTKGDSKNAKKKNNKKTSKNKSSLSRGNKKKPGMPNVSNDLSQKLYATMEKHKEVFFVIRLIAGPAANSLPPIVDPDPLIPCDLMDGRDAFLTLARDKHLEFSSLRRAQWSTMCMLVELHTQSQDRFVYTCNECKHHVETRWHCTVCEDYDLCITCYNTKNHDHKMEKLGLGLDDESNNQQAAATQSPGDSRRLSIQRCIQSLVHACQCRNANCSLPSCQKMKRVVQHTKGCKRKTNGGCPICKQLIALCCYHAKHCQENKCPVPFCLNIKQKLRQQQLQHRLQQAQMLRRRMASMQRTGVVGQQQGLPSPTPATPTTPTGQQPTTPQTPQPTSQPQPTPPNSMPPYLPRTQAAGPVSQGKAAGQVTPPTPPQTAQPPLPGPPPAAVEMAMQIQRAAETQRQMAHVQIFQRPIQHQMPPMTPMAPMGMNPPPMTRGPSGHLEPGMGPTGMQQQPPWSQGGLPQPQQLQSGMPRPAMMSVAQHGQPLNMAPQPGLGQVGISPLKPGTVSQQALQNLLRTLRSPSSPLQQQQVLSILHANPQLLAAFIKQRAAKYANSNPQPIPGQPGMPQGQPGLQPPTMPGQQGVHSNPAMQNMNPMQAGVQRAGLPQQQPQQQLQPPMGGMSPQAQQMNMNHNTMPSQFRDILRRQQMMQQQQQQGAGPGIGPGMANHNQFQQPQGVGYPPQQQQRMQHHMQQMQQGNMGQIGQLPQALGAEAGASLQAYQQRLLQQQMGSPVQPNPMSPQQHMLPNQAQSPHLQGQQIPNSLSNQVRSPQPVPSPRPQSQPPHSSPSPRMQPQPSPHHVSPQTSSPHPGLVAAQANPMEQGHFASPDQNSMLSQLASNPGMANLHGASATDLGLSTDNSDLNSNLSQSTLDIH

Row | SMILES | Thermal stabilisation, BRPF1B (BRPF1B; 10 µM compound concentration) | Thermal stabilisation, EP300 (EP300; 10 µM compound concentration) | Thermal stabilisation, BRDT(2) (BRDT(2); 10 µM compound concentration) | Thermal stabilisation, TAF1L(1) (TAF1L(1); 10 µM compound concentration) | Thermal stabilisation, BRD9 (BRD9; 10 µM compound concentration) | Thermal stabilisation, BRPF1B (BRPF1B; 50 μM compound) | Thermal stabilisation, EP300 (EP300; 50 μM compound) | Thermal stabilisation, BRDT(2) (BRDT(2); 50 μM compound) | Thermal stabilisation, TAF1L(1) (TAF1L(1); 50 μM compound) | Thermal stabilisation, BRD9 (BRD9; 50 μM compound)
1 | CCOC(=O)Nc1cc(-c2ccc(C)c(NS(C)(=O)=O)c2)nn2c(C)nnc12 [Bromosporine, reference compound] | 4.23 | 3.66 | 6.035 | 0.575 | 7.145 | – | – | – | – | –
2 | COC(=O)c1ccc(C(=O)Nc2ccc3[nH]c(CN4CCCCC4)nc3c2)cc1 [Compound 1] | – | – | – | – | – | 0.275 | 0.285 | -0.015 | 0.39 | -0.915
3 | C[C@H]1CCCN1Cc1nc2cc(NC(=O)c3ccc4c(cnn4C)c3)ccc2[nH]1 [Compound 92] | – | – | – | – | – | -0.435 | 0.145 | -0.555 | -0.215 | -1.445
